Results published in patent US8501781B2 (priority 2009, dated 2013).
Where two headings read alike, the source gives them in different places. Marks after values point to notes of the source that are not given here.

Assay: logP by HPLC (EEC Directive 79/831 Annex V.A8)
Format: physicochemical
[1] = [b] LC-MS, acidic range, pH 2.7, 0.1% aqueous formic acid and acetonitrile
[2] = [c] LC-MS, neutral range, pH 7.8, 0.001 molar aqueous ammonium bicarbonate and acetonitrile
[3] = pH 2.7, given in the preparation examples, read-out: log P (pH 2.7)

SMILES	logP [1]	further results
O=C(OC1CCCCC1)c1csc(C2CCN(C(=O)Cc3nc(C(F)(F)F)ccc3Cl)CC2)n1 [Example 52]	4.08^[b]	–
Cc1ccc(C)c(NC(=O)N2CCC(c3nc(C(=O)Oc4c(Cl)cccc4Cl)cs3)CC2)c1 [Example 151]	3.82^[b]	–
O=C(OCc1ccccc1Br)c1csc(C2CCN(C(=S)Nc3cc(C(F)(F)F)ccc3F)CC2)n1 [Example 118]	4.34	logP [2]: 4.37
O=C(Oc1cccc2ccccc12)c1csc(C2CCN(C(=O)Cc3cccc(Cl)c3)CC2)n1 [Example 10]	4.01^[b]	–
Cc1cc(C(F)(F)F)nn1CC(=O)N1CCN(c2nc(C(=O)SC3CCCCC3)cs2)CC1 [Example 34]	–	logP [2]: 4.43^[c]
Cc1ccc(C)c(NC(=O)N2CCC(c3nc(C(=O)OCc4ccncc4Cl)cs3)CC2)c1 [Example 139]	2.77^[b]	–
O=C(OC1CCCc2ccccc21)c1csc(C2(F)CCN(C(=O)Cn3nc(C(F)F)cc3C(F)F)CC2)n1 (centres unmarked) [Example 68]	4.12^[b]	–
Cc1ccc(C)c(NC(=O)N2CCC(c3nc(C(=O)OC(C)c4c(Cl)cccc4Cl)cs3)CC2)c1 (centres unmarked) [Example 156]	4.35^[b]	–
Cc1cc(C(F)(F)F)nn1CC(=O)N1CCN(c2nc(C(=O)OCc3ccc(Cl)cc3Cl)cs2)CC1 [Example 44]	4.12^[c]; 4.12^[b]	logP [2]: 4.12^[c]; 4.12^[b]
Cc1ccc(Cl)c(NC(=O)N2CCC(c3nc(C(=O)OC4CCCCC4)cs3)CC2)c1 [Example 62]	4.30^[b]	–
Cc1ccc(C)c(NC(=O)N2CCC(c3nc(C(=O)OCc4c(F)cccc4Br)cs3)CC2)c1 [Example 155]	3.79^[b]	–
Cc1cc(C(F)(F)F)nn1CC(=O)N1CCN(c2nc(C(=O)OC3CCCCC3)cs2)CC1 [Example 46, Cyclohexyl 2-(4-{[5-methyl-3-(trifluoromethyl)-1H-pyrazol-1-yl]acetyl}piperazin-1-yl)-1,3-thiazole-4-carboxylate]	–	chromatographic logP ([c] LC-MS, neutral range, pH 7.8, 0.001 molar aqueous ammonium bicarbonate and acetonitrile, read-out: logP): 3.68; chromatographic logP [3]: 3.69
Cc1ccc(Cl)cc1NC(=O)N1CCC(c2nc(C(=O)OC3CCCc4ccccc43)cs2)CC1 (centres unmarked) [Example 125]	4.27	logP [2]: 4.14
Cc1ccc(C(F)(F)F)cc1OC(=O)N1CCC(c2nc(C(=O)OC3CCCCC3)cs2)CC1 [Example 38, 2-Methyl-5-(trifluoromethyl)phenyl 4-{4-[(cyclohexyloxy)carbonyl]-1,3-thiazol-2-yl}piperidine-1-carboxylate]	–	chromatographic logP [3]: 5.28
Cc1ccc(C)c(CC(=O)N2CCC(c3nc(C(=O)OCc4ccccc4Br)cs3)CC2)c1 [Example 102]	4.23	logP [2]: 4.27
Cc1ccc(I)cc1CC(=O)N1CCC(c2nc(C(=O)OC3CCCCC3)cs2)CC1 [Example 19]	4.66^[b]	–
Cc1ccc(C)c(NC(=S)N2CCC(c3nc(C(=O)OC4CCCCC4c4ccccc4)cs3)CC2)c1 (centres unmarked) [Example 158]	4.73^[b]	–
O=C(OCc1ccccc1Br)c1csc(C2CCN(C(=O)Cc3cc(Cl)ccc3Cl)CC2)n1 [Example 87]	4.41	logP [2]: 4.44
Cc1cc(C(F)(F)F)nn1CC(=O)N1CCN(c2nc(C(=O)OC(C)c3cc(Cl)ccc3Cl)cs2)CC1 (centres unmarked) [Example 31]	4.28^[b]	–
O=C(OC1CCCCC1)c1csc(C2CCN(C(=O)Nc3cc(C(F)(F)F)ccc3Cl)CC2)n1 [Example 61]	4.76^[b]	–
Cc1cc(C(F)(F)F)nn1CC(=O)N1CCN(c2nc(C(=O)Sc3ccc(Cl)cc3Cl)cs2)CC1 [Example 47]	4.49	logP [2]: 4.5
Cc1cc(CC(=O)N2CCC(c3nc(C(=O)OC4CCCCC4)cs3)CC2)nn1C [Example 89]	2.66	logP [2]: 2.68
Cc1cc(C(F)(F)F)nn1CC(=O)N1CCN(c2nc(C(=O)Oc3ccccc3Cl)cs2)CC1 [Example 39]	3.46	logP [2]: 3.41
O=C(OC1CCCc2ccccc21)c1csc(C2CCN(C(=O)Nc3cc(Cl)ccc3Cl)CC2)n1 (centres unmarked) [Example 95]	4.92^[b]	–

SMILES	logP [1]	further results
Cn1nc(C(F)(F)F)cc1OC(=O)N1CCC(c2nc(C(=O)OC3CCCCC3)cs2)CC1 [Example 109]	4.36	logP [2]: 4.37
O=C(OC1CCCCC1)c1csc(C2CCN(C(=O)CCCC(F)(F)C(F)(F)F)CC2)n1 [Example 57]	4.22^[b]	–
COc1ccc(C)cc1NC(=O)N1CCC(c2nc(C(=O)OCc3c(F)cccc3F)cs2)CC1 [Example 164]	3.66^[b]	–
Cc1ccc(C)c(NC(=O)N2CCC(c3nc(C(=O)Oc4c(Br)cccc4Br)cs3)CC2)c1 [Example 144]	3.93^[b]	–
Cc1ccc(C)c(NC(=O)N2CCC(c3nc(C(=O)OC(C)c4ccccc4F)cs3)CC2)c1 (centres unmarked) [Example 153]	3.71^[b]	–
Cc1ccc(C)c(NC(=O)N2CCC(c3nc(C(=O)Oc4c(F)cccc4F)cs3)CC2)c1 [Example 150]	3.39^[b]	–
O=C(Oc1cccc2ccccc12)c1csc(C2CCN(C(=O)Cc3cccc(C(F)(F)F)c3)CC2)n1 [Example 1]	4.16^[b]	–
O=C(OC1CCCCC1)c1csc(C2CCN(C(=O)CC3CCCC(C(F)(F)F)C3)CC2)n1 (centres unmarked) [Example 56]	4.58^[b]	–
O=C(OC1CCCCC1)c1csc(C2CCN(C(=O)Cc3cccc(Cl)c3)CC2)n1 [Example 9]	4.04^[b]	–
O=C(OCc1c(F)cccc1F)c1cnc(C2CCN(C(=O)Cn3nc(C(F)F)cc3C(F)F)CC2)s1 [Example 175]	3.45^[b]	–
Cc1ccc(Cl)cc1NC(=S)N1CCC(c2nc(C(=O)OC3CCCCC3c3ccccc3)cs2)CC1 (centres unmarked) [Example 159]	4.83^[b]	–
Cc1cc(C(F)(F)F)nn1CC(=O)N1CCC(F)(c2nc(C(=O)O[C@@H]3CCCc4ccccc43)cs2)CC1 [Example 127]	4.25^[b]	–
Cc1noc(C)c1NC(=S)N1CCC(c2nc(C(=O)OC3CCCCC3)cs2)CC1 [Example 73]	3.18^[b]	–
Cc1ccc(F)c(NC(=O)N2CCC(c3nc(C(=O)OC4CCCCC4)cs3)CC2)c1 [Example 64]	3.81^[b]	–
Cc1ccc(C)c(NC(=O)N2CCC(c3nc(C(=O)O[C@@H]4CCCC[C@H]4c4ccccc4)cs3)CC2)c1 [Example 122]	4.43^[b]	–
Cn1ncc(CC(=O)N2CCC(c3nc(C(=O)OC4CCCCC4)cs3)CC2)c1Cl [Example 6]	2.93^[b]	–
Cc1ccc(C)c(NC(=O)N2CCC(c3nc(C(=O)Oc4c(C)cccc4Cl)cs3)CC2)c1 [Example 143]	3.76^[b]	–
O=C(OC1CCCCC1)c1csc(C2CCN(C(=O)C(=O)c3ccco3)CC2)n1 [Example 60]	3.07^[b]	–
COc1ccc(C)cc1NC(=O)N1CCC(F)(c2nc(C(=O)OC3CCCCC3)cs2)CC1 [Example 169]	4.4	logP [2]: 4.42
Cc1ccc(C)c(NC(=O)N2CCC(F)(c3nc(C(=O)OC4CCCCC4)cs3)CC2)c1 [Example 172]	4.15^[c]; 4.15^[b]	logP [2]: 4.15^[c]; 4.15^[b]
COc1ccc(C)cc1NC(=O)N1CCC(F)(c2nc(C(=O)OCc3c(F)cccc3F)cs2)CC1 [Example 173]	3.80	logP [2]: 3.92
O=C(OC1CCCCC1)c1csc(C2CCN(C(=O)Cc3cc(C(F)(F)F)ccc3C(F)(F)F)CC2)n1 [Example 16]	4.81^[b]	–
Cc1cc(C)cc(CC(=O)N2CCC(c3nc(C(=O)OC4CCCCC4)cs3)CC2)c1 [Example 65]	4.32	logP [2]: 4.34
O=C(OC1CCCCC1)c1cnc(C2CCN(C(=O)Cn3nc(C(F)F)cc3C(F)F)CC2)s1 [Example 178]	3.97^[b]	–
